Laboratory results taken from patent US20120157396A1, “PYRAZINAMIDE FOR IMMUNOSTIMULATION AND THE TREATMENT OF LEISHMANIASES” (priority 2009, published 2012).
“And” between values parts separate entries of the source, which are not always exact repeats. Identical values can stand only once. Like-named read-outs stand apart in the source and are kept apart here.

How the values were obtained:
[1] = tested on: L. major promastigotes; test: L. major promastigote drug treatment, parasite survival after 48 h; type: cell-based; conditions: 48 h, promastigote
Protocol: The effect of PZA was first investigated with promastigotes of L. major. PZA was diluted in medium and added to cultures. After 48 h, parasite multiplication was determined by counting parasites in culture. […] Incubation of L. major with 1 μg/ml amphotericin B (as a positive control) caused 100% mortality of promastigotes and 90% of amastigotes.
Mid-log phase (day 3 of culture) L. major promastigotes were employed. Parasite concentration was adjusted to 10^6 promastigotes/ml and seeded into 96-well plates in a volume of 100 μl (final concentration, 10^5 promastigotes/well). PZA was tested in triplicate in a concentration gradient from 1,000-0.5 μg/ml and added to the wells containing the parasite in a volume of 100 μl. A negative control was included with three wells containing only parasites and medium. The positive control consisted of amphotericin B (1 μg/ml). This concentration was previously employed by us because this concentration is equivalent to drug concentrations achieved in human plasma. After 48 h of incubation at 26° C., 10 μL of each well was diluted in 90 μL of the vital colorant (trypan blue in PBS) and the parasites were quantified in a Neubauer chamber. Data was normalized as percentage of survival compared to untreated controls. The Lethal Dose 50 (LD50) was extrapolated from the graph as the concentration of the products that inhibited the parasitic growth at 50% of the values of the negative control.

[2] = tested on: uninfected J774 cells; type: cell-based; conditions: 48 h; for percentage of survival compared to untreated control: mouse
Protocol: The potential cytotoxicity of PZA toward the mammalian cell line was determined by co-incubation of PZA with uninfected J774 cells for 48 h (10^4 cells/well) in 96-well culture plates. […] At 200 μg/ml, the compound started to show signs of toxicity, resulting in mortality of 25% of the cell monolayer. […] The control drug amphotericin B caused 5% mortality of the cell monolayer at the concentration tested (1 μg/ml).
J774 cell viability following incubation with PZA was also determined. Cells were seeded onto 8-well Labtek chambers as above and incubated with different concentrations of PZA (up to 1 mg/ml) for 48 h, stained with Diff-Quick and counted under light microscope. The percentage of viable cells was determined after quantifying the number of cells present per field (in 25 fields, ca. 500 cells). Percentage of survival and MIC50 were calculated as above.

[3] = tested on: splenocytes; test: Lymphoproliferative response of splenocytes from L. donovani-infected treated mice; type: cell-based, C57BL/6 mice; conditions: PZA-treated mice, dose dependent
Protocol: FIG. 5. PZA increases proliferation in treated splenocytes. Positive proliferation (measured as loss of CFSE staining at day 5) at 3 wk post infection in CFSE-stained splenocytes from C75BL/6 mice infected with L. donovani and treated with drug vehicle (3.8% DMSO, control) or increasing concentrations of PZA (n=3±SD), following in vitro restimulation with 25 μg/ml leishmanial antigen or 2 μg/ml concanavalin A.
VL typically induces T cell anergy toward leishmanial antigens.

[4] = tested on: dendritic cells lacking TLR-2 and -4; test: Activation of bone marrow-derived dendritic cells from TLR-2/-4 double knock out mice; type: cell-based
Protocol: FIG. 11. A. The immunostimulatory effect of PZA is independent of TLR engagement. Mean fluorescence values for the expression of CD80, CD86, MHC Class I and MHC Class II and B. IL-12, IL-10 and iNOS expression determined by flow cytometry in bone marrow-derived dendritic cells from TLR-2/-4 double knock out mice, infected or not with L. major, and treated with 10 and 100 μM PZA. Uninfected cells were treated with 10 U IFN-γ/100 ng/ml LPS as a positive control of activation. Unstimulated, untreated cells are also shown. Data are expressed as mean±standard deviation of n=3 determinations. *: Statistically significant P≦0.03; **: Statistically significant P≦0.005; ***: Statistically significant, P≦0.0001 when compared to the group infected with L. major and untreated.
In this experiment, we treated the dendritic cells as described above, in the presence or absence of L. major infection. Again as a positive control, cells were primed with IFN-γ and LPS. […] In the same way, the expression of IL-12, IL-10 and iNOS was increased in treated cells, irrespective of infection (FIG. 11B).

NC(=O)c1cnccn1 [PZA, pyrazinamide]
MIC50 ([1]; Leishmania major): 10 µM and 16.2 µg/mL
percentage of survival compared to untreated control ([1]; PZA 1 μg/ml): 88 ± 18%
percentage of survival compared to untreated control ([1]; PZA 12.5 μg/ml): 50 ± 18%
percentage of survival compared to untreated control ([1]; PZA 50 μg/ml): 38 ± 14%
percentage of survival compared to untreated control ([1]; PZA 200 μg/ml): 20 ± 10%
percentage of survival compared to untreated control ([1]; PZA 1000 μg/ml): 10 ± 12%
mortality of the cell monolayer ([2]; PZA 200 μg/ml): 25%
mortality of the macrophages ([2]; PZA 1 mg/ml): 100%
percentage of survival compared to untreated control ([2]; 1 μg/ml): 100 ± 11%
percentage of survival compared to untreated control ([2]; 12.5 μg/ml): 100 ± 10%
percentage of survival compared to untreated control ([2]; 50 μg/ml): 100 ± 12%
percentage of survival compared to untreated control ([2]; 100 μg/ml): 100 ± 15%
percentage of survival compared to untreated control ([2]; 200 μg/ml): 85 ± 12%
percentage of survival compared to untreated control ([2]; 1000 μg/ml): 0%
proliferation of splenocytes to leishmanial antigens and concanavalin A [3]: recovered their ability to proliferate
expression of activation markers and MHC Class molecules ([4]; 10 and 100 μM PZA, dose-dependent, TLR-2/-4 double knock out dendritic cells): increased expression of activation markers and MHC Class molecules
expression of IL-12, IL-10 and iNOS ([4]; PZA-treated cells, irrespective of infection): increased
